Measured values published in article PMC10688702, “The indole motif is essential for the antitrypanosomal activity of N^5-substituted paullones” (PLOS ONE, 2023).
≈ marks a conversion by molar mass, not a printed value.

What was measured:
[1] = target: trypanothione synthetase of L. infantum (LiTryS) (Leishmania infantum, UniProt A4I2Z3); test: TryS activity screening assay on recombinant LiTryS; format: biochemical; settings: for activity at 30 µM: read-out: LiTryS activity [% at 30 μM]; for IC50: recombinant TryS, errors 2 SD, read-out: LiTryS inhibition [IC50
Outline: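 N-His-tagged TryS from E. coli, purified by IMAC and SEC; end-point reaction with 150 μM ATP, 2 mM Spd, GSH 0.05 mM (TbTryS) or 0.25 mM (LiTryS), enzyme 3*10^−5 (TbTryS) or 2*10^−5 (LiTryS) μmol*min^-1*mL^-1. Stopped after 15 min with BIOMOL GREEN; A650 activity relative to blank-corrected DMSO control.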

[2] = Thermodynamic aqueous solubility, shake-flask method and HPLC-UV; format: physicochemical; settings: phosphate-buffered saline, aqueous buffer, thermodynamic from solid, PBS pH 7.4, 25°C, up to 72 h, HPLC-UV, logS of molar solubility [M]
Protocol: Phosphate-buffered saline pH 7.4 was prepared according to the European Pharmacopeia 10.4 by dissolving 2.38 g sodium monohydrogen phosphate dodecahydrate, 0.19 g potassium dihydrogen phosphate and 8.0 g sodium chloride in demineralised water (to a total volume of 1000 mL). The pH was adjusted to a value of 7.4 with hydrochloric acid. The buffer was filtered through a 0.45 μm membrane filter (Chromafil® Xtra PES-45/25) before use.
The thermodynamic aqueous solubility was determined by a miniaturised shake-flask method. […] A negative control with the buffer (400 μL) was incubated for every time point and measured likewise. After incubation for 24 h, 48 h and 72 h, the vials were checked for undissolved compound; then the filter plunger was punched into the vial for filtration. […] The calibration curve was obtained from at least three dilutions and five measuring points from a DMSO stock solution of the respective compound.

trypanothione synthetase of L. infantum (LiTryS), sequence (A4I2Z3 entry or part of it): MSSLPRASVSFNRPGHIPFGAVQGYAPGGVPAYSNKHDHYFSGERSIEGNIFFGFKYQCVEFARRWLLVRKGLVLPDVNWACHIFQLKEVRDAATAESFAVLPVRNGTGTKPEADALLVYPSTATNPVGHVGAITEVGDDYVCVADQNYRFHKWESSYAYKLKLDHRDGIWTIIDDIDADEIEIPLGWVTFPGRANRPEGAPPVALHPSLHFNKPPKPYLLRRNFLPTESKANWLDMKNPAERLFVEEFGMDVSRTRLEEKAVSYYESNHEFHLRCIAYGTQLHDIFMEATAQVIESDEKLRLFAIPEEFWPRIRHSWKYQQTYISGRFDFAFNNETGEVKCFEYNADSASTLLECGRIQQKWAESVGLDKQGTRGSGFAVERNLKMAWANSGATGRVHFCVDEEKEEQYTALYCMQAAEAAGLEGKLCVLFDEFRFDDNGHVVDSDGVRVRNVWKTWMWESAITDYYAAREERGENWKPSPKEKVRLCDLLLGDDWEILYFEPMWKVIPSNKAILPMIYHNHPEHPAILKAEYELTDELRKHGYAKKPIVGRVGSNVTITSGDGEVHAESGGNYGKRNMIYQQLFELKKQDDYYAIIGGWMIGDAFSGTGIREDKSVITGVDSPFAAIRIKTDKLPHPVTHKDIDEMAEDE

For `CNCCNC(=O)CN1C(=O)Cc2c([nH]c3ccc(I)cc23)-c2ccc(Cl)cc21` [1f, 2-(3-Chloro-9-iodo-6-oxo-7,12-dihydrobenzo[2,3]azepino[4,5-b]indol-5(6H)-yl)-N-[2-(methylamino)ethyl]acetamide], the activity at 30 µM [1] was 2.2 ± 0.6%, the IC50 [1] was 70 ± 30 nM and the solubility thermodynamic at 72 h [2] was 1.7e-06 M (≈ 0.888 µg/mL).
With `CNCCNC(=O)CN1C(=O)Cc2c([nH]c3ccc(C(F)(F)F)cc23)-c2ccc(Cl)cc21` [1h, 2-(3-Chloro-6-oxo-9-trifluoromethyl-7,12-dihydrobenzo[2,3]azepino[4,5-b]indol-5(6H)-yl)-N-[2-(methylamino)ethyl]acetamide] the activity at 30 µM [1] was 0%, the IC50 [1] was 60 ± 40 nM and the solubility thermodynamic at 72 h [2] was < 2.95e-07 M.
For `CNCCNC(=O)CN1C(=O)Cc2c([nH]c3ccc(Cl)cc23)-c2ccc(Cl)cc21` [1g, 2-(3,9-Dichloro-6-oxo-7,12-dihydrobenzo[2,3]azepino[4,5-b]indol-5(6H)-yl)-N-[2-(methylamino)ethyl]acetamide], the activity at 30 µM [1] was 2.2%, the IC50 [1] was 390 ± 60 nM and the solubility thermodynamic at 72 h [2] was 1.29e-05 M (≈ 5.56 µg/mL).
